# Patent US10703764B2, “Benzopiperazine compositions as BET bromodomain inhibitors” (FORMA Therapeutics, Inc., priority 2013, dated 2020)
# Tests used:
# [1] = biological target: T1, BRD4 BD1 (Homo sapiens, UniProt O60885); test: AlphaScreen binding assay, BRD4 Bromodomain 1
# T1 construct: made in house
# How it was run: (§1)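 Compound dilution series were mixed with His-tagged BRD4 bromodomain and biotinylated tetra-acetylated H4 (1-21) peptide at pH 7.3 (BD1 and peptide at 50 nM, BD2 and peptide at 100 nM). Donor and acceptor beads were then added, and plates were equilibrated at least 1 h before reading. IC50 values were fitted with a four-parameter logistic model.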
# [2] = test system: MV4-11 cells; test: Oncology cell growth assay (3-day proliferation, CellTiter-Glo); format: cell-based; settings: Homo sapiens, MV4-11, 72 h, AML cell line MV4-11, 72 hours, compounds grouped by IC50 range, read-out: MV4-11 IC50 (inhibition of proliferation, gIC50)
# How it was run: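 Compounds were serially diluted 3-fold in DMSO, giving final well concentrations from 10 down to 0.0045 μM. MV4-11 cells were then seeded at 3000 cells/well in RPMI 1640 with 10% FBS and incubated 72 hours. CellTiter-Glo signal was measured and gIC50 obtained by four-parameter logistic regression.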
# [3] = biological target: T2, BRD4 BD2 (Homo sapiens, UniProt O60885); test: AlphaScreen binding assay, BRD4 Bromodomain 2
# T2 construct: made in house
# How it was run: as §1
IC50 [1] [nM],IC50 [2] [nM],IC50 [3] [nM],Compound
1000 to 10000,100 to 500,50 to 500,CCN(CC)S(=O)(=O)c1cc(-c2ccc3c(c2)N(C(=O)C2CC2)C[C@H](C)N3C(C)=O)ccc1OC [Example I-1112]
1000 to 10000,100 to 500,50 to 500,CCN(CC)S(=O)(=O)c1cc(-c2ccc3c(c2)N(C(=O)C2CCC2)C[C@H](C)N3C(C)=O)ccc1OC [Example I-1113]
100 to 1000,> 500,50 to 500,CCOC(=O)N1C[C@H](C)N(C(C)=O)c2ccc(-c3ccc(OC)c(S(=O)(=O)N(CC)CC)c3)cc21 [Example I-1114]
100 to 1000,100 to 500,50 to 500,CCN(CC)S(=O)(=O)c1cc(-c2ccc3c(c2)N(C(=O)OC(C)C)C[C@H](C)N3C(C)=O)ccc1OC [Example I-1115]
1000 to 10000,> 500,50 to 500,CC(=O)N1c2ccc(-c3ccc(S(=O)(=O)n4cccn4)cc3)cc2N(C(=O)C2CCC2)C[C@@H]1C [Example I-1116]
1000 to 10000,> 500,50 to 500,CCOC(=O)N1C[C@H](C)N(C(C)=O)c2ccc(-c3ccc(S(=O)(=O)n4cccn4)cc3)cc21 [Example I-1117]
1000 to 10000,> 500,> 500,CC(=O)N1c2ccc(-c3ccc(S(=O)(=O)n4cccn4)cc3)cc2N(C(=O)OC(C)C)C[C@@H]1C [Example I-1118]
1000 to 10000,100 to 500,50 to 500,CNS(=O)(=O)c1ccc(-c2ccc3c(c2)N(C(=O)C2CC2)C[C@H](C)N3C(C)=O)cc1 [Example I-1119]
1000 to 10000,100 to 500,50 to 500,CNS(=O)(=O)c1ccc(-c2ccc3c(c2)N(C(=O)C2CCC2)C[C@H](C)N3C(C)=O)cc1 [Example I-1120]
1000 to 10000,100 to 500,50 to 500,CCOC(=O)N1C[C@H](C)N(C(C)=O)c2ccc(-c3ccc(S(=O)(=O)NC)cc3)cc21 [Example I-1121]
100 to 1000,100 to 500,50 to 500,CNS(=O)(=O)c1ccc(-c2ccc3c(c2)N(C(=O)OC(C)C)C[C@H](C)N3C(C)=O)cc1 [Example I-1122]
1000 to 10000,100 to 500,50 to 500,CC(=O)N1c2ccc(-c3ccc(S(=O)(=O)N(C)C)cc3)cc2N(C(=O)C2CC2)C[C@@H]1C [Example I-1123]
1000 to 10000,100 to 500,50 to 500,CC(=O)N1c2ccc(-c3ccc(S(=O)(=O)N(C)C)cc3)cc2N(C(=O)C2CCC2)C[C@@H]1C [Example I-1124]
1000 to 10000,100 to 500,50 to 500,CCOC(=O)N1C[C@H](C)N(C(C)=O)c2ccc(-c3ccc(S(=O)(=O)N(C)C)cc3)cc21 [Example I-1125]
1000 to 10000,100 to 500,50 to 500,CC(=O)N1c2ccc(-c3ccc(S(=O)(=O)N(C)C)cc3)cc2N(C(=O)OC(C)C)C[C@@H]1C [Example I-1126]
1000 to 10000,100 to 500,50 to 500,CC(=O)N1c2ccc(-c3ccc(S(=O)(=O)NC(C)(C)C)cc3)cc2N(C(=O)C2CC2)C[C@@H]1C [Example I-1127]

# Further lines, the compound ahead of its results:
Compound,IC50 [1] [nM],IC50 [2] [nM],IC50 [3] [nM]
CCOC(=O)N1C[C@H](C)N(C(C)=O)c2ccc(-c3ccc(S(=O)(=O)CC(C)C)cc3)cc21 [Example I-1080],1000 to 10000,> 500,50 to 500
CC(=O)N1c2ccc(-c3ccc(S(=O)(=O)CC(C)C)cc3)cc2N(C(=O)OC(C)C)C[C@@H]1C [Example I-1081],1000 to 10000,> 500,50 to 500
CC(=O)N1c2ccc(-c3ccc(S(C)(=O)=O)c(F)c3)cc2N(C(=O)C2CC2)C[C@@H]1C [Example I-1082],1000 to 10000,> 500,50 to 500
CC(=O)N1c2ccc(-c3ccc(S(C)(=O)=O)c(F)c3)cc2N(C(=O)C2CCC2)C[C@@H]1C [Example I-1083],1000 to 10000,> 500,50 to 500
CCOC(=O)N1C[C@H](C)N(C(C)=O)c2ccc(-c3ccc(S(C)(=O)=O)c(F)c3)cc21 [Example I-1084],1000 to 10000,> 500,50 to 500
CC(=O)N1c2ccc(-c3ccc(S(C)(=O)=O)c(F)c3)cc2N(C(=O)OC(C)C)C[C@@H]1C [Example I-1085],1000 to 10000,> 500,50 to 500
CC(=O)N1c2ccc(-c3cccc(S(=O)(=O)C4CC4)c3)cc2N(C(=O)C2CC2)C[C@@H]1C [Example I-1086],1000 to 10000,> 500,50 to 500
CC(=O)N1c2ccc(-c3cccc(S(=O)(=O)C4CC4)c3)cc2N(C(=O)C2CCC2)C[C@@H]1C [Example I-1087],1000 to 10000,> 500,50 to 500
CCOC(=O)N1C[C@H](C)N(C(C)=O)c2ccc(-c3cccc(S(=O)(=O)C4CC4)c3)cc21 [Example I-1088],1000 to 10000,> 500,50 to 500
CC(=O)N1c2ccc(-c3cccc(S(=O)(=O)C4CC4)c3)cc2N(C(=O)OC(C)C)C[C@@H]1C [Example I-1089],100 to 1000,100 to 500,50 to 500
CCS(=O)(=O)c1cccc(-c2ccc3c(c2)N(C(=O)C2CC2)C[C@H](C)N3C(C)=O)c1 [Example I-1090],1000 to 10000,> 500,50 to 500
CCS(=O)(=O)c1cccc(-c2ccc3c(c2)N(C(=O)C2CCC2)C[C@H](C)N3C(C)=O)c1 [Example I-1091],1000 to 10000,> 500,50 to 500
CCOC(=O)N1C[C@H](C)N(C(C)=O)c2ccc(-c3cccc(S(=O)(=O)CC)c3)cc21 [Example I-1092],1000 to 10000,> 500,50 to 500
CCS(=O)(=O)c1cccc(-c2ccc3c(c2)N(C(=O)OC(C)C)C[C@H](C)N3C(C)=O)c1 [Example I-1093],100 to 1000,100 to 500,50 to 500
CC(=O)N1c2ccc(-c3cc(Cl)cc(S(C)(=O)=O)c3)cc2N(C(=O)C2CC2)C[C@@H]1C [Example I-1094],1000 to 10000,> 500,> 500
CC(=O)N1c2ccc(-c3cc(Cl)cc(S(C)(=O)=O)c3)cc2N(C(=O)C2CCC2)C[C@@H]1C [Example I-1095],1000 to 10000,> 500,> 500

Compound,IC50 [1] [nM],IC50 [2] [nM],IC50 [3] [nM]
CCOC(=O)N1C[C@H](C)N(C(C)=O)c2ccc(-c3cc(Cl)cc(S(C)(=O)=O)c3)cc21 [Example I-1096],1000 to 10000,> 500,> 500
CC(=O)N1c2ccc(-c3cc(Cl)cc(S(C)(=O)=O)c3)cc2N(C(=O)OC(C)C)C[C@@H]1C [Example I-1097],1000 to 10000,> 500,> 500
CC(=O)N1c2ccc(-c3ccc(F)c(S(C)(=O)=O)c3)cc2N(C(=O)C2CC2)C[C@@H]1C [Example I-1098],1000 to 10000,> 500,50 to 500
CC(=O)N1c2ccc(-c3ccc(F)c(S(C)(=O)=O)c3)cc2N(C(=O)C2CCC2)C[C@@H]1C [Example I-1099],1000 to 10000,> 500,50 to 500
CCOC(=O)N1C[C@H](C)N(C(C)=O)c2ccc(-c3ccc(F)c(S(C)(=O)=O)c3)cc21 [Example I-1100],1000 to 10000,> 500,50 to 500
CC(=O)N1c2ccc(-c3ccc(F)c(S(C)(=O)=O)c3)cc2N(C(=O)OC(C)C)C[C@@H]1C [Example I-1101],1000 to 10000,> 500,50 to 500
CCOC(=O)N1C[C@H](C)N(C(C)=O)c2ccc(-c3ccc(OCCS(C)(=O)=O)cc3)cc21 [Example I-1102],100 to 1000,> 500,50 to 500
CC(=O)N1c2ccc(-c3ccc(OCCS(C)(=O)=O)cc3)cc2N(C(=O)OC(C)C)C[C@@H]1C [Example I-1103],100 to 1000,> 500,50 to 500
CNS(=O)(=O)c1cccc(-c2ccc3c(c2)N(C(=O)C2CC2)C[C@H](C)N3C(C)=O)c1 [Example I-1104],1000 to 10000,100 to 500,50 to 500
CNS(=O)(=O)c1cccc(-c2ccc3c(c2)N(C(=O)C2CCC2)C[C@H](C)N3C(C)=O)c1 [Example I-1105],1000 to 10000,> 500,50 to 500
CCOC(=O)N1C[C@H](C)N(C(C)=O)c2ccc(-c3cccc(S(=O)(=O)NC)c3)cc21 [Example I-1106],1000 to 10000,100 to 500,50 to 500
CNS(=O)(=O)c1cccc(-c2ccc3c(c2)N(C(=O)OC(C)C)C[C@H](C)N3C(C)=O)c1 [Example I-1107],100 to 1000,100 to 500,50 to 500
CC(=O)N1c2ccc(-c3cccc(S(=O)(=O)NCCO)c3)cc2N(C(=O)C2CC2)C[C@@H]1C [Example I-1108],1000 to 10000,100 to 500,50 to 500
CC(=O)N1c2ccc(-c3cccc(S(=O)(=O)NCCO)c3)cc2N(C(=O)C2CCC2)C[C@@H]1C [Example I-1109],1000 to 10000,> 500,50 to 500
CCOC(=O)N1C[C@H](C)N(C(C)=O)c2ccc(-c3cccc(S(=O)(=O)NCCO)c3)cc21 [Example I-1110],1000 to 10000,100 to 500,50 to 500
CC(=O)N1c2ccc(-c3cccc(S(=O)(=O)NCCO)c3)cc2N(C(=O)OC(C)C)C[C@@H]1C [Example I-1111],100 to 1000,100 to 500,50 to 500
